Series [1] is described as follows: plasma and tissue concentrations after oral administration to the rat (HPLC). The format is in vivo. As for the experimental part: The compound (X) was administered orally at a dose of 50 mg/kg to the rat after which the plasma, tissue and urine concentrations were evaluated by the HPLC method, as described hereinafter.
The plasma and tissues (heart, kidney and liver) were withdrawn from groups of 3 female rats at various times after oral administration.
The HPLC determination was made by the following procedure: 2 mg of N-dimethyldiarepam (internal standard), 1 ml of citrate buffer (0.1 M, pH 6.2) and 6 ml of chloroform are added to 1 ml of plasma or to 1 ml of supernatant obtained after centrifuging a homogenized tissue in 3 volumes of physiological solution at 2000 r.p.m. for 5 minutes.
After agitating for 20 minutes and centrifuging at 3000 r.p.m. for 5 minutes, the organic phase is separated and dried over a water bath at 70° C.
The residue is collected in 50 μl of methanol, and 20 μl of the solution are injected into a HPLC (Gilson) column under the following conditions: column μ Bondopak C-18 ([…], wavelength 245 nm), flow: 0.7 ml/min, mobile phase: (A) 0.1% acetic acid and (B) methanol, gradient: […]

The subject of a further series is Proteus 966. In words: in-vitro antibacterial activity, MIC by agar dilution (multipoint inoculator). In kind it is cell-based. To be noted: for MIC: read-out: Minimum Inhibiting Concentration (MIC). As for the experimental part: (§1) The antibacterial activity of the compounds according to the invention was determined "in vitro" on pathogenic strains of recent clinical isolation by testing agar dilutions using a multipoint inoculator (Denley Techn. Ltd., England).
(§2) The culture medium used is isosensitest agar (Oxoid), in a quantity of 20 ml in a Petri capsule. The compounds to be tested were dissolved at various dilutions and incorporated in agar.
(§3) The bacterial inoculum, originating from an overnight broth and containing 10^5 colony-forming units per point, was inoculated by a multipoint inoculator. The bacterial growth was evaluated after 18 hours of incubation at 37° C.
(§4) For comparison purposes, the results relative to compound (XIII) and to nalidixic acid are also reported.
Background: In agar dilution the substance is mixed into plates at graded concentrations.

In a further series the test system is Pseudomonas 19. The description is as above. The format is cell-based. To be noted: for MIC: read-out: Minimum Inhibiting Concentration (MIC). Here is the method: as §1, §2, §3, §4
Another series deals with Klebsiella 4. The series is described as above. As to conditions: for MIC: read-out: Minimum Inhibiting Concentration (MIC). The format is cell-based. Here is the method: as §1, §2, §3, §4
Another series has as its system Proteus 25. The series is described as above. In kind it is cell-based. As to conditions: for MIC: read-out: Minimum Inhibiting Concentration (MIC). As for the experimental part: as §1, §2, §3, §4
The next series has as its system Citrobacter 118. The series is described as above. In kind it is cell-based. As to conditions: for MIC: read-out: Minimum Inhibiting Concentration (MIC). As for the experimental part: as §1, §2, §3, §4
A further series concerns Escherichia 963. The series is described as above. The format is cell-based. To be noted: for MIC: read-out: Minimum Inhibiting Concentration (MIC). Here is the method:
as §1, §2, §3, §4

For the next series, the system named is Staphylococcus 29. Described as above. In kind it is cell-based. As to conditions: for MIC: read-out: Minimum Inhibiting Concentration (MIC). As for the experimental part:
as §1, §2, §3, §4

In the next series the test system is Enterobacter 041. The series is described as above. In kind it is cell-based. To be noted: for MIC: read-out: Minimum Inhibiting Concentration (MIC). As for the experimental part: as §1, §2, §3, §4
Another series deals with Enterobacter 2653. The description is as above. In kind it is cell-based. As to conditions: for MIC: read-out: Minimum Inhibiting Concentration (MIC). As for the experimental part:
as §1, §2, §3, §4

The test system of another series is Escherichia 15. The series is described as above. The format is cell-based. As to conditions: 18 hours at 37° C, read-out: Minimum Inhibiting Concentration (MIC). As for the experimental part: as §1, §2, §3, §4
Another series has as its system Citrobacter 120. The series is described as above. In kind it is cell-based. To be noted: for MIC: read-out: Minimum Inhibiting Concentration (MIC). Here is the method:
as §1, §2, §3, §4

The subject of a further series is Serratia 9. Described as above. In kind it is cell-based. To be noted: for MIC: read-out: Minimum Inhibiting Concentration (MIC). As for the experimental part: as §1, §2, §3, §4
For the next series, the system named is Pseudomonas 22437. The series is described as above. The format is cell-based. To be noted: 18 hours at 37° C; for MIC: read-out: Minimum Inhibiting Concentration (MIC). As for the experimental part:
as §1, §2, §3, §4

A further series deals with Staphylococcus 7. The series is described as above. In kind it is cell-based. As to conditions: for MIC: read-out: Minimum Inhibiting Concentration (MIC). Here is the method:
as §1, §2, §3, §4

For another series, the system named is Serratia 10. The series is described as above. In kind it is cell-based. To be noted: 18 hours at 37° C, read-out: Minimum Inhibiting Concentration (MIC). As for the experimental part:
as §1, §2, §3, §4

Where [2] appears, read: Pseudomonas 19, 18 hours at 37° C.
[3] abbreviates: Klebsiella 4, 18 hours at 37° C.
Where [4] appears, read: Citrobacter 118, 18 hours at 37° C.
The mark [5] stands for this setting: Escherichia 963, 18 hours at 37° C.
Setting [6] is: Staphylococcus 29, 18 hours at 37° C.
Where [7] appears, read: Enterobacter 041, 18 hours at 37° C.
Setting [8] is: Enterobacter 2653, 18 hours at 37° C.
Setting [9] is: Citrobacter 120, 18 hours at 37° C.
Setting [10] is: Staphylococcus 7, 18 hours at 37° C.

Values after ≈ are worked out from the molar mass of the structure shown. Where two headings read alike, the source gives them in different places.

Consider `CC1Cn2cc(C(=O)O)c(=O)c3cc(F)c(N4CCNCC4)c(c32)S1` (centres unmarked) [(XI), 9-fluoro-10[N-piperazinyl]-2-methyl-7-oxo-2,3-dihydro-7H-pyrido[1,2,3-de][1,4]benzothiazine-6-carboxylic acid], for which the “results of the tests operating in accordance with the described procedures, in words” value in series [1] (rat, in vivo) is given as “analogous to the tests carried out with compound (X)”.
For the molecule `CC1Cn2cc(C(=O)O)c(=O)c3cc(F)c(Cl)c(c32)S1` (centres unmarked) [reference compound], the MIC in the series on Proteus 966 (Proteus 966, 18 hours at 37° C) is > 32 µg/mL; in the series with Pseudomonas 19 (setting [2]), > 32 µg/mL; in the series on Klebsiella 4 (setting [3]), 0.12 µg/mL (≈ 0.382 µM); with Proteus 25 (Proteus 25, 18 hours at 37° C), > 32 µg/mL; in the series on Citrobacter 118 (setting [4]), 1 µg/mL (≈ 3.19 µM); in the series with Escherichia 963 (setting [5]), 16 µg/mL (≈ 51 µM). Also, the MIC is 0.12 µg/mL (≈ 0.382 µM) in the series with Staphylococcus 29 (setting [6]); 0.12 µg/mL (≈ 0.382 µM) in the series with Enterobacter 041 (setting [7]); 0.12 µg/mL (≈ 0.382 µM) in the series on Enterobacter 2653 (setting [8]); 0.25 µg/mL (≈ 0.797 µM) in the series on Escherichia 15; > 32 µg/mL in the series with Citrobacter 120 (setting [9]); > 32 µg/mL in the series on Serratia 9 (Serratia 9, 18 hours at 37° C). Also, the values for the MIC with Pseudomonas 22437, with Staphylococcus 7 (setting [10]) and in the series on Serratia 10 were > 32 µg/mL, 0.12 µg/mL (≈ 0.382 µM) and 0.25 µg/mL (≈ 0.797 µM), respectively.
On to `CCn1cc(C(=O)O)c(=O)c2ccc(C)nc21` [NALIDIXIC ACID, nalidixic acid, reference compound], for which the MIC with Proteus 966 (18 h) was > 25 µg/mL; in the series on Pseudomonas 19 (Pseudomonas, 19, 18 h), > 25 µg/mL; in the series with Klebsiella 4 (Klebsiella, 4, 18 h), 3.12 µg/mL (≈ 13.4 µM); in the series with Proteus 25 (18 h) it was 12.5 µg/mL (≈ 53.8 µM); in the series with Citrobacter 118 (Citrobacter, 118, 18 h), 12.5 µg/mL (≈ 53.8 µM); with Escherichia 963 (Escherichia, 963, 18 h), > 25 µg/mL. Further, the MIC in the series with Staphylococcus 29 (Staphylococcus, 29, 18 h) is > 25 µg/mL; in the series with Enterobacter 041 (Enterobacter, 041, 18 h), 3.12 µg/mL (≈ 13.4 µM); with Enterobacter 2653 (Enterobacter, 2653, 18 h), 1.56 µg/mL (≈ 6.72 µM); with Escherichia 15, 3.12 µg/mL (≈ 13.4 µM); with Citrobacter 120 (Citrobacter, 120, 18 h), 12.5 µg/mL (≈ 53.8 µM); in the series on Serratia 9 (Serratia, 9, 18 h), > 25 µg/mL. For the same molecule, the MIC in the series with Pseudomonas 22437 was > 25 µg/mL; in the series with Staphylococcus 7 (Staphylococcus, 7, 18 h) it was > 25 µg/mL.
In the case of “ethyl 9-fluoro-10-chloro-2-methyl-7-oxo-2,3-dihydro-7H-pyrido[1,2,3-de][1,4]benzothiazine-1-sulphoxide-6-carboxylate [(II)]”, the “Minimum Inhibiting Concentration (MIC)” value in the series on Proteus 966 (Proteus 966, 18 hours at 37° C) stood at 4 µg/mL; in the series on Pseudomonas 19 (setting [2]), 16 µg/mL; in the series on Klebsiella 4 (setting [3]), 0.25 µg/mL; in the series with Proteus 25 (Proteus 25, 18 hours at 37° C), 4 µg/mL; with Citrobacter 118 (setting [4]), 0.5 µg/mL; with Escherichia 963 (setting [5]), 2 µg/mL. For the same molecule, the “Minimum Inhibiting Concentration (MIC)” value with Staphylococcus 29 (setting [6]) is 1 µg/mL; with Enterobacter 041 (setting [7]) it was 0.12 µg/mL; with Enterobacter 2653 (setting [8]) it was 0.25 µg/mL; in the series with Citrobacter 120 (setting [9]) it was 0.5 µg/mL; in the series with Serratia 9 (Serratia 9, 18 hours at 37° C), 8 µg/mL; in the series with Pseudomonas 22437, 16 µg/mL. In addition, the “Minimum Inhibiting Concentration (MIC)” value in the series with Staphylococcus 7 (setting [10]) was found to be 1 µg/mL.
Consider `CC1Cn2cc(C(=O)O)c(=O)c3cc(F)c(N4CCCC4)c(c32)S1` (centres unmarked) [(XII), 9-fluoro-10[N-pyrrolidine]-2-methyl-7-oxo-2,3-dihydro-7H-pyrido[1,2,3-de][1,4]benzothiazine-6-carboxylic acid], for which the “results of the tests operating in accordance with the described procedures, in words” value in series [1] (compared with compound (X)) is on record as “analogous to the tests carried out with compound (X)”. Also, the MIC with Proteus 966 (Proteus 966, 18 hours at 37° C) was determined as 2 µg/mL (≈ 5.74 µM); with Pseudomonas 19 (setting [2]), 2 µg/mL (≈ 5.74 µM); in the series with Klebsiella 4 (setting [3]), 2 µg/mL (≈ 5.74 µM); in the series with Proteus 25 (Proteus 25, 18 hours at 37° C) it was 2 µg/mL (≈ 5.74 µM); in the series with Citrobacter 118 (setting [4]), 16 µg/mL (≈ 45.9 µM); in the series on Escherichia 963 (setting [5]), 16 µg/mL (≈ 45.9 µM). The MIC was 0.25 µg/mL (≈ 0.718 µM) with Staphylococcus 29 (setting [6]); 2 µg/mL (≈ 5.74 µM) in the series on Enterobacter 041 (setting [7]); 16 µg/mL (≈ 45.9 µM) in the series with Enterobacter 2653 (setting [8]); 2 µg/mL (≈ 5.74 µM) in the series with Escherichia 15; 2 µg/mL (≈ 5.74 µM) with Citrobacter 120 (setting [9]); 16 µg/mL (≈ 45.9 µM) in the series with Serratia 9 (Serratia 9, 18 hours at 37° C). Moreover, the MIC in the series on Pseudomonas 22437 stood at 16 µg/mL (≈ 45.9 µM); in the series with Staphylococcus 7 (setting [10]), 0.25 µg/mL (≈ 0.718 µM); with Serratia 10, 2 µg/mL (≈ 5.74 µM).

(Values after patent US4868299A, “Antibacterially active pyrido-benzothiazine derivatives with long-term action” (Mediolanum Farmaceutici Srl, priority 1986, dated 1989).)
